Results taken from patent US7160684B2, “Methods of selecting compounds for modulation of bladder function” (Wyeth, priority 2000, dated 2007).

Columns and labels:
[1] = tested on: isolated rat bladder smooth muscle cell; assay: Current clamp recording of resting membrane potential, rat cells; type: cell-based; settings: 10 μM retigabine
From the text: (§1) Rat detrusor cells are isolated in a manner previously described for guinea-pig detrusor (Sheldon J H, Norton N W and Argentieri T M (1997) Inhibition of guinea pig detrusor contraction by NS-1619 is associated with activation of BKCa and inhibition of calcium currents. J Pharmacol Exp Thera 283(3): 1193–1200). Male Sprague-Dawley rats (Charles River, Wilmington, Mass.; 200–400 grams) are euthanized by CO2 inhalation and exsanguination. Their urinary bladders are rapidly removed and placed in 37° C. physiological solution with the following composition (mM): Na glutamate (80.0), NaCl (54.7), KCl (5.0), NaHCO3 (25.0), MgCl2.2H2O (2.5), D-glucose (11.8) and CaCl2 (0.2) gassed with O2—CO2, 95%/5% for a final pH of 7.4. The dome of the bladder is isolated from the trigone region and the mucosa is removed. This tissue is then cut into 2–3 mm wide strips and placed into fresh buffer for 1 hour. Tissues are then transferred into 10 ml of an isolation buffer containing the above composition plus collagenase type VIII (1.0 mg/ml) and pronase (0.25 mg/ml). After 10 minutes the isolation buffer is replaced with fresh isolation buffer for an additional 10 min. The tissue is then washed 3 times in fresh collagenase and pronase free solution and stored at room temperature until studied. Cells for study are prepared by triturating 1–2 pieces of detrusor tissue in 2 ml of fresh isolation buffer for 5 minutes with a polished Pasteur pipette, (tip diameter ˜1.5 mm) attached to a modified Harvard Respirator pump (Harvard Apparatus, Southnatic, Mass.) at a rate of 20×/min. with an approximate volume of 5 ml. Cells are then placed on a microscope stage in a temperature regulated tissue bath at 32.5° C. and continually superfused with PSS.
(§2) Single cell recordings are performed with a List-Medical EPC-7 patch clamp amplifier (Adams & List Assoc., Westbury, N.Y.). Pipette electrodes had tip resistances of 2–4 MΩ and are filled with the following composition (mM): KCl (126.0), MgCl2.6H2O (4.5), ATP Mg salt (4.0), GTP tris salt (0.3), creatine PO4 (14.0), D-glucose (9.0), EGTA (9.0), HEPES (9.0). The pH is adjusted to 7.4 with KOH. Signals are acquired (3 kHz high frequency cut-off, 12 bit resolution) using a 586-based personal computer.
Cell resting membrane potential (RMP) is measured in current clamp using the above mentioned instrumentation and pipette solutions. For these experiments nystatin is also added to the pipette solution (100 μg/ml) to allow recording through utilization of the perforated patch technique (Korn, et al, 1991). […] After this time, various antagonists (linopirdine, XE-991) are added to the perfusate and RMP is recorded for an additional 5 minutes. […]

[2] = tested on: isolated rat bladder smooth muscle cell; assay: Voltage clamp recording of outward current, rat cells; type: cell-based; settings: test potentials between −50 and 80 mV; n=5
From the text: as §1, §2
Whole cell recordings are made using broken patch access. Currents are evoked using either voltage steps (Vh=−50; Vt=−60 to 40 mV) or voltage ramps (−60 to 40 mV at 3.3 mV/sec.). The exact voltage clamp protocols are well known in the art. After stability is achieved control currents are recorded. Next, test compound is added to the superfusate. Currents are recorded for 5 to 10 minutes or until compound effects reach steady state. This is followed either by washout or addition of antagonists (linopirdine, XE-991) to the superfusate. […]

**Q.** `CCOC(=O)Nc1ccc(NCc2ccc(F)cc2)cc1N` [retigabine, N-[2-amino-4-(4-fluorobenzylamino)-phenyl]carbamic acid ethyl ester] was tested. Which “hyperpolarization of the cell” value ([1]; RMP −40 mV before exposure, single tracing FIG. 3a) did it give?
**A.** The value was “approximately 10 mV”.

**Q.** What about the “resting membrane potential (RMP) after exposure” value ([1]; control RMP −29.0±4.5 mV, n=3) of the same compound?
**A.** Its value is −43.0±3.5 mV.

**Q.** And the “effect on outward current” value [2]?
**A.** Its value is “increase in outward current”.
